Measurements as given in US20260137696A1, “Compositions Comprising an Inhibitor of Galectin-3” (University of Liverpool, priority 2023, published 2026).
Where “and” joins values, the source holds several entries; their conditions need not be identical. Identical values can stand only once.

Columns and labels:
SW620 cells = assay: Cancer cell invasion through HUVECs (transwell); type: cell-based, human; settings: 10 μM, transwells
Method: Invasion of human colon cancer SW620 cells through human umbilical vein endothelial cells (HUVECs) was assessed in transwells in the absence or presence of the compounds of Formula I and Formula II (10 μM).
HUVECs were seeded (1.5×10^4 cells/well) into trans-well insert in 24-well plate and cultured for three days to allow tight monolayer formation (TEER reading >800 Ω/cm2). The integrity of HUVEC monolayer was confirmed by measuring TEER and only monolayers with TEER reading >800 Ω/cm^2 were used for the invasion assay. The HUVEC monolayers were washed with PBS before introduction of ZsGreen- and luciferase transfected SW620Gal3+, SW620Gal-3, or ACA19+ cells (5×10^5 cells/ml) in serum-free DMEM with 0.5 mg/ml BSA, without or with 10 μM the compound of Formula I or the compound of Formula II. ZsGreen- and luciferase-labelled SW620Gal3− and SW620Gal3+ cells (5×10^5 cells/ml) were mixed without or with 10 μM inhibitors for 15 minutes before introduced to the HUVEC monolayer in the transwells for 16-18 hours. The cells at the upper side of the trans-well inserts were gently removed with a cotton swab and the inserts were washed twice with PBS. The cells that migrated to the bottom side of the trans-wells were lysed with PLB buffer for 10 min. The lyse was introduced with Luciferase Assay Reagent for 5 min before luminescence was measured. […]

Galectin-3 [1] = target: T1, Galectin-3 (Homo sapiens, UniProt P17931); assay: Binding affinity to Galectin-3 by Tryptophan Fluorescence Spectroscopy (TFS); settings: Galectin-3 10 μM, titration 0 to 224 μM
T1 construct: made in house; host or cells: E. coli
Method: (§1) The binding affinity of the compounds of Formula I and Formula II to Galectin-3 is assessed by Tryptophan Fluorescence Spectroscopy (TFS). The compounds of Formula I and Formula II bind to Galectin-3 with binding affinity (KD) at low μM;
as §1, with “FIG. 2A and FIG. 2B show analysis of the binding affinity of the compounds of Formula I and Formula II to Galectin-3. The binding” for “The binding”, “at low μM.” for “at low μM;”
The binding affinity of the inhibitors to Galectin-3 was determined by Intrinsic Tryptophan Fluorescence Spectroscopy (TFS) exactly as we described recently (Sindrewicz, P., et al., Intrinsic tryptophan fluorescence spectroscopy reliably determines galectin-ligand interactions. Sci Rep, 2019. 9(1): p. 11851, herein incorporated by reference). The Galectin-3 concentration used was 10 μM and the inhibitor titration concentrations were from 0 to 224 μM. DMSO/control buffer (PBS with 2 mM EDTA) titrations were performed and used for background subtraction.
The binding affinities of the compounds of Formula I and compounds of Formula II to Galectin-3 was determined by Tryptophan Fluorescence spectroscopy (TFS) [Sindrewicz, P., et al., Intrinsic tryptophan fluorescence spectroscopy reliably determines galectin-ligand interactions. Scientific Reports, 2019. 9(1): p. 11851, herein incorporated by reference] The Galectin-3 concentration used was 10 μM and the compounds of Formula I and compounds of Formula II titration concentrations were from 0 to 224 μM. DMSO/control buffer (PBS with 2 mM EDTA) titrations were performed and used for background subtraction.

Galectin-3 [2] = target: T1, Galectin-3; assay: Galectin-3 binding to its ligand asialofetuin (ASF), ELISA; settings: Galectin-3 5 μg/ml, ASF 20 μg/ml, read-out: IC50, inhibition of Galectin-3 binding to ASF
Method: The compounds of Formula I and Formula II each inhibits Galectin-3 binding to ASF dose-dependently with IC50 1˜5 μM;
FIG. 1A and FIG. 1B show compounds of Formula I and Formula II inhibit Galectin-3 binding to its ligand asialofetuin (ASF). […] The compounds of Formula I and Formula II each inhibit Galectin-3 binding to ASF dose-dependently with IC50 1˜5 μM.
Ninety-six well ELISA plates were coated with 20 μg/ml ASF in coating buffer (1.6 g Na2CO3, 1.46 NaHCO3 in 1 L H20, pH 9.6) overnight at room temperature. The plates were washed twice with washing buffer (0.05% Tween-20 in PBS) before incubation with blocking buffer (1% BSA in PBS) for 30 min. Recombinant human Galectin-3 (5 ug/ml) was incubated without or with various concentrations of the compounds of Formula I and compounds of Formula II for 30 min before introduced to the plates for 2 hr at room temperature. The plates were washed twice with washing buffer before introduction of anti-Galectin-3 antibody (1 μg/ml) for 2 hr. The plates were washed three times with washing buffer before introduction of HRP-conjugated secondary antibody (1:5,000 dilutions) for 1 hr at room temperature. The plates were washed twice with washing buffer before developed by SigmaFAST. The reaction was stopped by addition of 4M sulphuric acid before the plates were read at 492 nm (ref 595 nm) by a microplate reader.

[3] = system: galectin-3 knockout (Gal3KO) PANC1 cells; assay: Pancreatic cancer cell adhesion to basement matrix, galectin-3 knockout; type: cell-based, human; settings: galectin-3 knockout by CRISPR/Cas9 (FIG. 16C, 16D)
Method: Nanty-six well plates were coated with 50 μl Matrigel (1:30 diluted in PBS) at 37° C. for 1 hour. Cancer cells, pre-labelled with fluorescent die DiI at 37° C. for 20 minutes, were washed twice with PBS and resuspended into 3×10^4 cells/ml in serum-free medium. The matrix-coated 96-well plates were washed twice with PBS before introduction of […] cell suspension with different concentrations of the inhibitors or PBS/DMSO (control) for 1 hour at 37° C. The plates were washed twice with PBS before three randomly selected Field of Views (FOVs) were recorded by fluorescence microscope and number of adhesion cells were quantified by Image J.
MDAMB-231 or PANC-1 cells were seeded into 6-well plate (2×10^5 cells) and cultured at 37° C. for 24 hour. Galectin-3 CRISPR Cas9 Knockout plasmid (2 μg) and galectin-3 HDR plasmid (2 μg) was mixed with Plasmid Transfection Medium (21 μl) for 5 minutes before addition to a mixture of lipofectamine STEM Transfection Reagent (STEM00001) (1 μl) and Plasmid Transfection Medium (25 μl) for 10 minutes at room temperature. The cells in the 6-well plates were washed and introduced with the Plasmid DNA/Lipofectamine STEM Transfection Reagent complex at 37° C. for 24 hours. […] Successful co-transfection of the CRISPR/Cas9 KO Plasmid and HDR Plasmid was confirmed by expression of red fluorescence protein of the cells. […]

T1 sequence (P17931 whole entry): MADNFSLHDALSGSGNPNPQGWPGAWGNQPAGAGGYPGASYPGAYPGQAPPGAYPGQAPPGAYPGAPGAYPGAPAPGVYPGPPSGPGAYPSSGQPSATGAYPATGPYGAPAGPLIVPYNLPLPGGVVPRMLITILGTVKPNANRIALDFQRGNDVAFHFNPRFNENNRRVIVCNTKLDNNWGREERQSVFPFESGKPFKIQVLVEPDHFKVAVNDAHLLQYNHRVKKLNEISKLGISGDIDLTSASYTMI

| Compound | SW620 cell invasion through HUVECs (SW620 cells) | Kd (Galectin-3 [1]) | binding affinity (Kd) to Galectin-3 (Galectin-3 [1]) | IC50 (Galectin-3 [2]) | adhesion of Gal3KO PANC1 cells [3] |
| --- | --- | --- | --- | --- | --- |
| C[C@H]1COc2c(N3CCN(C)CC3)c(F)cc3c(=O)c(C(=O)NNc4cccc(N)c4)cn1c23 [Formula II] | significant inhibits | 30 µM | low μM | ~5 µM and 1 to 5 µM | lost their inhibitory effect |
| C[C@H]1COc2c(N3CCN(C)CC3)c(F)cc3c(=O)c(C(=O)NNc4ccc(N)cc4)cn1c23 [Formula I] | significant inhibits | 18 µM | low μM | ~1 µM and 1 to 5 µM | lost their inhibitory effect |
